A short description of data set [1]: Inhibition of thrombin-induced platelet aggregation in mouse platelet isolated from C57BL/6J mouse treated at 200 mg/kg, ig twice a day for 7 days by lumi-aggregometer. Format: functional. The following applies: po, 168 h, time 7 day.
In another data set the test system is Mus musculus. In words: Antithrombotic activity in collagen-epinephrine induced pulmonary thromboembolism mouse model assessed as protection rate at 200 mg/kg, ig twice a day for 7 days followed by administered collagen-epinephrine relative to control. It is filed as functional. The following applies: time 7 day.
The nature of data set [2]: Cmax in Sprague-Dawley rat at 200 mg/kg, po compound dissolved in DMSO measured after 2 hr by HPLC-MS/MS analysis. The following applies: in vivo. It is filed as ADME, organism-based. Further details: route oral, time 2 hrs, dose 200 mg/kg.
Data set [3] is described as follows: Half life in Sprague-Dawley rat at 200 mg/kg, po measured by HPLC-MS/MS analysis. It is filed as ADME, organism-based. Conditions: in vivo.
Data set [4] in a line: Apparent clearance during terminal phase in Sprague-Dawley rat at 200 mg/kg, po measured by HPLC-MS/MS analysis. It is filed as ADME, organism-based. The following applies: in vivo.
Data set [5] is described as follows: AUC (0 to infinity) in Sprague-Dawley rat at 200 mg/kg, po measured by HPLC-MS/MS analysis. It is filed as ADME, organism-based. Further details: time infinity, route oral, dose 200 mg/kg. The following applies: in vivo.

24 compounds from ChEMBL document CHEMBL4765340, “Novel potent antiplatelet thrombotic agent derived from biguanide for ischemic stroke” (Eur J Med Chem, 2020) can be followed below.

`CN(C)C(=N)NC(=N)NS(=O)(=O)C1CCCCC1`: 200 mg/kg produced 19.5% inhibition in vivo in data set [1]. Further, the Activity with Mus musculus is listed as 30%.

For `Cc1ccc(C(=O)NC(=N)NC(=N)N(C)C)cc1`, the inhibition in vivo (in general, the percentage by which the read-out fell short of the control) at 200 mg/kg in data set [1] turned out to be 18.3%. Moreover, in the data set on Mus musculus, the Activity was 20%.

In data set [1], `CN(C)C(=N)NC(=N)NS(=O)(=O)C(F)(F)C(F)(F)C(F)(F)C(F)(F)F` came in with an inhibition in vivo at 200 mg/kg of 9.2%. Further, the Activity with Mus musculus worked out at 20%.

Turning to `CN(C)C(=N)NC(=N)NC(=O)C1CCCCC1`, 200 mg/kg produced 24.1% inhibition in vivo in data set [1]. For the same compound, the Activity with Mus musculus is listed as 20%.

As for `CN(C)C(=N)NC(=N)NCc1ccccc1`, the inhibition in vivo at 200 mg/kg in data set [1] stood at 12.1%. Further, the Activity in the data set on Mus musculus turned out to be 20%.

`CCS(=O)(=O)NC(=N)NC(=N)N(C)C` came in with an inhibition in vivo at 200 mg/kg in data set [1] of 34.3%. Moreover, the Activity in the data set with Mus musculus was 20%.

`CN(C)C(=N)NC(=N)/N=C/c1ccc(C#N)cc1` had an inhibition in vivo at 200 mg/kg in data set [1] of 9.5%. Moreover, the Activity in the data set on Mus musculus is 10%.

Regarding `CC(C)S(=O)(=O)NC(=N)NC(=N)N(C)C`, at 200 mg/kg the inhibition in vivo in data set [1] was 28.2%. Besides, the Activity in the data set with Mus musculus is 40%.

For the compound `CN(C)C(=N)NC(=N)/N=C/c1ccc(O)cc1`, the inhibition in vivo at 200 mg/kg in data set [1] is 11.5%. Moreover, in the data set with Mus musculus, the Activity was determined as 10%.

Consider `CN(C)C(=N)NC(=N)NS(=O)(=O)C(F)F`, for which, in data set [1], the inhibition in vivo at 200 mg/kg was found to be 35.5%. In the data set on Mus musculus, the Activity amounted to 30%.

Take `CN(C)C(=N)NC(=N)NS(=O)(=O)C(Cl)(Cl)Cl`: at 200 mg/kg the inhibition in vivo in data set [1] was 34.9%. Further, the Activity with Mus musculus was determined as 40%.

In turn, `CN(C)C(=N)NC(=N)NS(=O)(=O)CCC(F)(F)F` yielded an inhibition in vivo at 200 mg/kg in data set [1] of 24.4%. The Activity in the data set on Mus musculus is 20%.

Compound `CN(C)C(=N)NC(=N)/N=C/c1cc(O)c(O)c(O)c1` had an inhibition in vivo at 200 mg/kg in data set [1] of 7.1%. In addition, the Activity in the data set with Mus musculus came to 0%.

For the compound `CN(C)C(=N)NC(=N)NC(=O)CCC(=O)O`, in data set [1], 200 mg/kg produced 40.4% inhibition in vivo. The Activity with Mus musculus was 40%.

`CC(=O)NC(=N)NC(=N)N(C)C` had an inhibition in vivo at 200 mg/kg in data set [1] of 15.4%. For the same compound, in the data set with Mus musculus, the Activity turned out to be 10%.

For `CN(C)C(=N)NC(=N)NC(=O)/C=C/C(=O)O`, in data set [1], at 200 mg/kg the inhibition in vivo was 13.5%. In addition, the Activity in the data set with Mus musculus came out at 20%.

Turning to `Cc1ccc(S(=O)(=O)NC(=N)NC(=N)N(C)C)cc1`, in data set [1], the inhibition in vivo at 200 mg/kg is 16.5%. For the same compound, the Activity in the data set on Mus musculus was found to be 30%.

The compound `CN(C)C(=N)NC(=N)NS(=O)(=O)CC(F)(F)F` showed an inhibition in vivo at 200 mg/kg in data set [1] of 29.3%. The Activity with Mus musculus came to 30%.

With `CC(=O)Oc1ccccc1C(=O)O` [ASPIRIN], the inhibition in vivo at 200 mg/kg in data set [1] was 38.8%. Moreover, the Activity in the data set on Mus musculus is given as 50%.

In data set [1], `CN(C)C(=N)NC(=N)NC(=O)c1ccccc1` came in with an inhibition in vivo at 200 mg/kg of 14.2%. For the same compound, the Activity in the data set with Mus musculus stood at 20%.

In data set [1], `CN(C)C(=N)NC(=N)NS(C)(=O)=O` returned an inhibition in vivo at 200 mg/kg of 47.5%. Moreover, the Activity in the data set on Mus musculus is 50%.

In data set [1], `CN(C)C(=N)NC(=N)/N=C/c1ccc(N(C)C)cc1` yielded an inhibition in vivo at 200 mg/kg of 6.2%. Moreover, the Activity in the data set on Mus musculus is listed as 10%.

In data set [1], `CN(C)C(=N)NC(=N)NC(=O)C(F)(F)F` gave an inhibition in vivo at 200 mg/kg of 16.5%. The Activity with Mus musculus came to 30%.

On to `CN(C)C(=N)NC(=N)N` [METFORMIN], for which, in data set [1], the inhibition in vivo at 200 mg/kg was 18.5%. Also, the Cmax (commonly the peak of the concentration-time curve) in data set [2] worked out at 18000 ng/mL. Further, the half-life (as a rule, how long it takes for the measured level to halve) in data set [3] was 194 min. Moreover, the CLz/F in data set [4] was determined as 2.54 L/h/kg. The AUC(0-inf) – broadly, the area under the concentration-time curve extrapolated to infinity – in data set [5] worked out at 78700 ng·h/mL. The Activity with Mus musculus is reported as 30%.
